Values of other authors in patent US20170001952A1, “FUMARATE COMPOUNDS, PHARMACEUTICAL COMPOSITIONS THEREOF, AND METHODS OF USE” (priority 2015, published 2017).

- aqueous solubility: poor aqueous solubility
Compound: COC(=O)/C=C/C(=O)OC [DMF, dimethylfumarate]
